We go through 26 compounds from patent US20030232986A1, “Inhibitors of caspases” (Vertex Pharmaceuticals Incorporated, priority 1998, published 2003).

Where a SMILES comes first, the peptide text is derived from it. The star is where a group is joined. Bz = O=C(c1ccccc1)* Some results are limits rather than exact numbers.

In general, IC50 refers to the midpoint of a concentration-inhibition curve. Lower therefore signals higher potency.

Series [1] relates to Human whole blood, IL-1β production. As to the kind of experiment: Whole blood assay for IL-1β production. The settings on record: LPS-stimulated whole blood, IL-1β by ELISA. Format: cell-based. An outline of the steps: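 LPS-stimulated (5.0 ng/ml final) human whole blood incubated with test compound in saline (or plasma/PBS-5% DMSO for hydrophobic compounds) at 30° C for 16-18 hr. Plasma IL-1β then measured by ELISA at 1:200 dilution, against no-LPS, no-inhibitor and vehicle controls.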
For orientation: An ELISA detects its analyte on a solid surface through an enzyme-linked reagent.

Series [2] is described as follows: Single pass perfusion in rat: GI wall and liver metabolism, biliary excretion. In kind it is in vitro ADME. The settings on record: for f (g) Xf (h): GI wall metabolism f(g) x liver metabolism f(h). On the procedure:
Single pass perfusion studies in rat were performed to assess gastrointestinal (GI) wall metabolism (f(g)), liver metabolism (f(h)), and biliary excretion. The method used has been described in Pang, C. S., J. Pharmacol. Exp. Therapeutics, 333, pp. 788-798 (1984).

The test system of series [3] is Human Peripheral Blood Mononuclear Cells (PBMC), mature IL-1β. The series can be described thus: PBMC cell assay: IL-1β assay with human peripheral blood mononuclear cells. Format: cell-based. The settings on record: LPS-stimulated human PBMC, mature IL-1β in supernatant by ELISA. A digest of the protocol: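 Donor PBMC (suspension at 6×10^6 cells/ml) or adherent-enriched monocytes were stimulated with 5 ng/ml LPS (final) alongside 5–6 compound dilutions bracketing the ICE Ki, at 0.1% DMSO final, for 16–18 hr at 37° C, 5% CO2. Mature IL-1β in supernatants was measured by ELISA; IC50 was calculated relative to LPS-only controls.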

Take `CC(C)[C@H](NC(=O)c1nccc2ccccc12)C(=O)N1CCC[C@H]1C(=O)N[C@H](C=O)CC(=O)O` [Example 5c]: the IC50 in series [1] was under 2500 nM. Also, in series [2], the “Biliary Excretion” value is on record as “C (Category “C” indicates >10%)” and the “f (g) Xf (h)” value is recorded as “A (category “A” indicates <0.25)”. This compound yielded an IC50 in series [3] of 500 to 1000 nM.

In turn, `CC(C)[C@H](NC(=O)c1cccc2c1-c1ccccc1C2=O)C(=O)N1CCC[C@H]1C(=O)N[C@H](C=O)CC(=O)O` [Example 5k] yielded a half-maximal inhibitory concentration (IC50) in series [1] of 2500 to 7500 nM. Also, in series [2], the “Biliary Excretion” value is “A (category “A” indicates <5%)” and the “f (g) Xf (h)” value is recorded as “B (Category “B” indicates 0.25-0.49)”. For the same compound, in series [3], the IC50 is over 2000 nM.

For `CC(C)[C@H](NC(=O)c1cc(Cl)c(O)c(Cl)c1)C(=O)N1CCC[C@H]1C(=O)N[C@H](C=O)CC(=O)O` [Example 5m], the IC50 in series [1] is under 2500 nM; in series [3], under 500 nM. For the same compound, the “Biliary Excretion” value in series [2] was “C (Category “C” indicates >10%)”. Further, the “f (g) Xf (h)” value in series [2] was “B (Category “B” indicates 0.25-0.49)”.

For `Cc1cc(C(=O)N[C@@H](C)C(=O)N2CCC[C@H]2C(=O)N[C@H](C=O)CC(=O)O)cc(C)c1O` [Example 7c], the IC50 is under 2500 nM in series [1] and under 500 nM in series [3].

As for `C[C@H](NC(=O)c1nccc2ccccc12)C(=O)N1CCC[C@H]1C(=O)N[C@H](C=O)CC(=O)O` [Example 7d], the IC50 in series [1] was 2500 to 7500 nM; in series [3] it was under 500 nM. Further, in series [2], the “Biliary Excretion” value is given as “A (category “A” indicates <5%)”. Besides, the “f (g) Xf (h)” value in series [2] is on record as “D (Category “D” indicates >0.75)”.

Regarding `COc1ccc(C(=O)N[C@@H](C)C(=O)N2CCC[C@H]2C(=O)N[C@H](C=O)CC(=O)O)cc1` [Example 7f], the IC50 in series [1] was 2500 to 7500 nM; in series [3], over 2000 nM. Further, the “Biliary Excretion” value in series [2] is listed as “A (category “A” indicates <5%)”. In addition, in series [2], the “f (g) Xf (h)” value is given as “C (Category “C” indicates 0.5-0.75)”.

For `COCC(=O)N1CCN(C(=O)[C@H](C)NC(=O)c2ccc(N)c(Cl)c2)[C@H](C(=O)N[C@H](C=O)CC(=O)O)C1` [Example 18f], the IC50 in series [1] lay within 2500 to 7500 nM. Moreover, in series [2], the “Biliary Excretion” value is on record as “A (category “A” indicates <5%)” and the “f (g) Xf (h)” value is “D (Category “D” indicates >0.75)”. In series [3], this compound yielded an IC50 of over 2000 nM.

For the compound `O=C[C@H](CC(=O)O)NC(=O)[C@@H]1CCCN1C(=O)[C@H](Cc1cccnc1)NC(=O)c1nccc2ccccc12` [Example 20f], the IC50 in series [1] is under 2500 nM. For the same compound, in series [2], the “Biliary Excretion” value is “C (Category “C” indicates >10%)” and the “f (g) Xf (h)” value is listed as “B (Category “B” indicates 0.25-0.49)”. In series [3], the IC50 is 500 to 1000 nM.

With `CSC[C@H](NC(=O)c1nccc2ccccc12)C(=O)N1CCC[C@H]1C(=O)N[C@H](C=O)CC(=O)O` [Example 20g], the IC50 is under 2500 nM in series [1] and under 500 nM in series [3]. Besides, the “Biliary Excretion” value in series [2] is recorded as “A (category “A” indicates <5%)”. In series [2], the “f (g) Xf (h)” value is “B (Category “B” indicates 0.25-0.49)”.

Turning to `CS(=O)(=O)CC[C@H](NC(=O)c1nccc2ccccc12)C(=O)N1CCC[C@H]1C(=O)N[C@H](C=O)CC(=O)O` [Example 20h], the IC50 in series [1] is under 2500 nM; in series [3], under 500 nM.

On to `CC[C@H](NC(=O)c1cc(Cl)c(O)c(Cl)c1)C(=O)N1CCC[C@H]1C(=O)N[C@H](C=O)CC(=O)O` [Example 20m], for which the 50% inhibitory concentration (IC50) in series [1] was under 2500 nM; in series [3], 500 to 1000 nM.

Compound `CC(C)[C@H](NC(=O)c1ccccc1)C(=O)N1CC(c2ccccc2)[C@H]1C(=O)N[C@H](C=O)CC(=O)O` (some centres unmarked) [Example 24a] registered an IC50 in series [1] of 2500 to 7500 nM. Further, in series [2], the “Biliary Excretion” value is listed as “A (category “A” indicates <5%)” and the “f (g) Xf (h)” value is “C (Category “C” indicates 0.5-0.75)”. The IC50 in series [3] was in the range of 500 to 1000 nM.

Take `CC(C)[C@H](NC(=O)c1nccc2ccccc12)C(=O)N1CC(c2ccccc2)[C@H]1C(=O)N[C@H](C=O)CC(=O)O` (some centres unmarked) [Example 24c]: the IC50 in series [1] is 2500 to 7500 nM; in series [3], under 500 nM. In series [2], the “Biliary Excretion” value is “C (Category “C” indicates >10%)”. For the same compound, the “f (g) Xf (h)” value in series [2] is reported as “A (category “A” indicates <0.25)”.

As to `CC(C)[C@H](NC(=O)c1nccc2ccccc12)C(=O)N1CC[C@H](C)[C@H]1C(=O)N[C@H](C=O)CC(=O)O` [Example 26c], the values for the IC50 in series [1] and in series [3] were 2500 to 7500 nM and 500 to 1000 nM, respectively. Further, the “Biliary Excretion” value in series [2] is reported as “C (Category “C” indicates >10%)”. Also, the “f (g) Xf (h)” value in series [2] is “A (category “A” indicates <0.25)”.

Take `CC(C)[C@H](NC(=O)c1nccc2ccccc12)C(=O)N1C2CCCCC2C[C@H]1C(=O)N[C@H](C=O)CC(=O)O` (some centres unmarked) [Example 26e]: the IC50 in series [1] was under 2500 nM; in series [3], under 500 nM. Moreover, in series [2], the “Biliary Excretion” value is “B (Category “B” indicates 5-10%)”. The “f (g) Xf (h)” value in series [2] is on record as “B (Category “B” indicates 0.25-0.49)”.

As to `CC(C)[C@H](NC(=O)c1nccc2ccccc12)C(=O)N1[C@@H](c2ccccc2)CC[C@H]1C(=O)N[C@H](C=O)CC(=O)O` [Example 26f], the IC50 in series [1] was in the range of 2500 to 7500 nM. In addition, in series [2], the “Biliary Excretion” value was “C (Category “C” indicates >10%)” and the “f (g) Xf (h)” value is reported as “A (category “A” indicates <0.25)”. Moreover, in series [3], the IC50 is under 500 nM.

`C[C@H](NC(=O)c1ccc(N)c(Cl)c1)C(=O)N1CC(F)(F)C[C@H]1C(=O)N[C@H](C=O)CC(=O)O` [Example 27a]: the IC50 in series [1] is under 2500 nM. Further, in series [2], the “Biliary Excretion” value is given as “A (category “A” indicates <5%)” and the “f (g) Xf (h)” value was “C (Category “C” indicates 0.5-0.75)”. For the same compound, the IC50 in series [3] is under 500 nM.

Consider `CC(C)[C@H](NC(=O)c1ccccc1)C(=O)N[C@@H](C)C(=O)N[C@H](C=O)CC(=O)O` [Example 29a] (Bz-Val-Ala-Asp-aldehyde), for which the IC50 in series [1] is under 2500 nM; in series [3], under 500 nM.

For `C[C@H](NC(=O)[C@@H](NC(=O)c1nccc2ccccc12)C(C)(C)C)C(=O)N[C@H](C=O)CC(=O)O` [Example 29g], the IC50 in series [1] is under 2500 nM. Further, in series [2], the “Biliary Excretion” value is “B (Category “B” indicates 5-10%)” and the “f (g) Xf (h)” value is “B (Category “B” indicates 0.25-0.49)”. This compound also yielded an IC50 in series [3] of 500 to 1000 nM.

Turning to `COc1ccc(C(=O)NC(C(=O)N2N=C(C(C)(C)C)SC2C(=O)NC(C=O)CC(=O)O)C(C)C)cc1` (centres unmarked) [Example 46b], the IC50 is 2500 to 7500 nM in series [1] and over 2000 nM in series [3]. In series [2], the “Biliary Excretion” value is “C (Category “C” indicates >10%)”. Also, in series [2], the “f (g) Xf (h)” value is listed as “B (Category “B” indicates 0.25-0.49)”.

Consider `COc1ccc(C(=O)NC(C(=O)N2CCCC2C(=O)NC(C=O)CC(=O)O)C(C)C)cc1` (centres unmarked) [Example 57, 3-({1-[2-(4-Methoxy-benzoylamino)-3-methyl-butyryl]-pyrrolidine-2-carbonyl}-amino)-4-oxo-butyric acid], for which the IC50 in series [1] was over 7500 nM; in series [3], 500 to 1000 nM. In series [2], the “Biliary Excretion” value is given as “B (Category “B” indicates 5-10%)”. For the same compound, the “f (g) Xf (h)” value in series [2] was “B (Category “B” indicates 0.25-0.49)”.

In series [1], `Cc1cc(C(=O)N[C@H](C(=O)N2CCCC2C(=O)N[C@H](C=O)CC(=O)O)C(C)C)cc(C)c1O` (stereo partly drawn) [Example 65, 3-({l-[2-(4-Hydroxy-3,5-dimethyl-benzoyiamino)-3-methyl-butyryl]-pyrrolidine-2-carbonyl}-amino)-4-oxo-butyric acid] gave an IC50 of under 2500 nM. Moreover, in series [2], the “Biliary Excretion” value was “C (Category “C” indicates >10%)” and the “f (g) Xf (h)” value is on record as “B (Category “B” indicates 0.25-0.49)”. The IC50 in series [3] lay within 500 to 1000 nM.

For `COc1ccc(C(=O)NC(C(=O)N2CCCC2C(=O)NC(C=O)CC(=O)O)C(C)(C)C)cc1` (centres unmarked) [Example 69, 3-({1-[2-(4-Methoxy-benzoylamino)-3,3-dimethyl-butyryl]-pyrrolidine-2-carbonyl}-amino)-4-oxo-butyric acid], the IC50 in series [1] is under 2500 nM. Also, in series [2], the “Biliary Excretion” value is recorded as “A (category “A” indicates <5%)” and the “f (g) Xf (h)” value was “C (Category “C” indicates 0.5-0.75)”. For the same compound, in series [3], the IC50 is under 500 nM.

For `C[C@H](NC(=O)c1cccc2c1-c1ccccc1C2=O)C(=O)N1CCC[C@H]1C(=O)N[C@H](C=O)CC(=O)O` [Example 122a], the IC50 in series [1] was under 2500 nM. Besides, in series [2], the “Biliary Excretion” value was “A (category “A” indicates <5%)” and the “f (g) Xf (h)” value was “B (Category “B” indicates 0.25-0.49)”. Moreover, the IC50 in series [3] is over 2000 nM.

For `CC(=O)Nc1ccc(C(=O)N[C@@H](C)C(=O)N2CCC[C@H]2C(=O)N[C@H](C=O)CC(=O)O)cc1Cl` [Example 122f, 3-({1-[2-(4-Acetylamino-3-chloro-benzoylamino)-propionyl]-pyrrolidine-2-carbonyl}-amino)-4-oxo-butyric acid], the IC50 in series [1] is under 2500 nM; in series [3], 500 to 1000 nM.

As to `C[C@H](NC(=O)c1cc(Cl)c(O)c(Cl)c1)C(=O)N1CCC[C@H]1C(=O)N[C@H](C=O)CC(=O)O` [Example 122k, 3-({1-[2-(3,5-Dichloro-4-hydroxy-benzoylamino)-propionyl]-pyrrolidine-2-carbonyl}-amino)-4-oxo-butyric acid], the IC50 in series [1] was under 2500 nM; in series [3], under 500 nM.
